Earlier results as cited in PMC11211886 (Frontiers in Pharmacology, 2024).
Where two headings read alike, the source gives them in different places.

How the values were obtained:
[1] = cited from earlier work; for incidence of ≥Grade 3 GI toxicity, including diarrhea and colitis: clinical trials, ref FDA, 2014, FDA, 2017, 2018, 2021
[2] = ref FDA, cited from earlier work
[3] = tested on: P-gp; set-up: method as in FDA, 2014; FDA, 2017; FDA, 2018; FDA, 2021; settings: ref FDA, 2014, 2017, 2018, 2021; cited from earlier work

SMILES	incidence of ≥Grade 3 GI toxicity, including diarrhea and colitis [1]	diarrhea, any-grade adverse event ([1]; ref Wang et al., 2023)	diarrhea, grade ≥3 AE ([1]; ref Wang et al., 2023)	exposure in the intestines versus plasma [2]; 2017	P-gp substrate status [3]	diarrhea (TEAE) incidence ([1]; patients with indolent and aggressive lymphoma, phase II, ref Dreyling et al., 2017)	exposure in the intestines versus plasma [2]; 2018	exposure in the intestines versus plasma [2]; 2014
C[C@H](Nc1ncnc2[nH]cnc12)c1cc2cccc(Cl)c2c(=O)n1-c1ccccc1 [duvelisib, Duvelisib]	higher than 10%	47%	12%	100 fold	P-gp substrates			
COc1c(OCCCN2CCOCC2)ccc2c1N=C(NC(=O)c1cnc(N)nc1)N1CCN=C21 [copanlisib, Copanlisib]	higher than 10%				P-gp substrates	40.5%	190 fold	
CC[C@H](Nc1ncnc2[nH]cnc12)c1nc2cccc(F)c2c(=O)n1-c1ccccc1 [idelalisib, Idelalisib]	higher than 10%				P-gp substrates			50 fold
